Calls of active or inactive are those of the source. The calls are words filed in the database; no cut-off is given here. Residues, ends and D or L forms follow the SMILES beside them. *: point of attachment. Palmitoyl = CCCCCCCCCCCCCCCC(=O)*
How the values were obtained:
Format in all cases: functional, cell-based
[1] = molecular target: Sphingosine 1-phosphate receptor Edg-5/Sphingosine 1-phosphate receptor Edg-3 (Homo sapiens) (UniProt O95136+Q99500); experiment: Agonist activity at S1P2/3 receptor in HEK293 cells assessed as inhibition of forskolin-induced cAMP level after 1 hr by alphascreen immunoassay
Apelin receptor = molecular target: T1, Apelin receptor (Homo sapiens, UniProt P35414); experiment: Agonist activity at APJ receptor in HEK293 cells assessed as inhibition of forskolin-induced cAMP level incubated for 5 mins prior to forskolin challenge measured after 30 mins by TR-FRET assay
T1 sequence (P35414 whole entry): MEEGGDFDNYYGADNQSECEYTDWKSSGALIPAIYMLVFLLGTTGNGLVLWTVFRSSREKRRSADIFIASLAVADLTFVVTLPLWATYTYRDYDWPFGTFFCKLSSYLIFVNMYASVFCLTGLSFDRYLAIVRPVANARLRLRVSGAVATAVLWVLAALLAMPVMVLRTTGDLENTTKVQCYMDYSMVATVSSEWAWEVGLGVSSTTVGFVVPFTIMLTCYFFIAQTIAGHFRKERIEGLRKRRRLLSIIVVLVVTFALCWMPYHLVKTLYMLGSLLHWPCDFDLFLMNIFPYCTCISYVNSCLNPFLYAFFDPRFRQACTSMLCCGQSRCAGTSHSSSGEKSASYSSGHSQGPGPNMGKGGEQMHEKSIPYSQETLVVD

[2] = molecular target: T2, Apelin receptor (Homo sapiens) (UniProt P35414); experiment: Agonist activity at APJ receptor in HEK293 cells assessed as inhibition of forskolin-induced cAMP level incubated for 5 mins prior to forskolin challenge measured after 30 mins by TR-FRET assay relative to [pyr1]-apelin-13
T2 sequence (whole entry): T1 sequence (P35414 whole entry)

| Structure (SMILES) | Activity [1] | EC50 (Apelin receptor) | %max [2] |
| --- | --- | --- | --- |
| CCCCCCCCCCCCC/C=C/[C@@H](O)[C@@H](N)COP(=O)(O)O | Active |  |  |
| CCCCCCCCCCCCCCCC(=O)N1CCC[C@H]1C(=O)N[C@@H](CC(C)C)C(=O)N[C@@H](Cc1c[nH]c2ccccc12)C(=O)N[C@@H](C)C(=O)N[C@H](C(=O)N[C@@H](Cc1ccc(O)cc1)C(=O)N[C@H](C(=O)N[C@@H](Cc1ccc(O)cc1)C(=O)N[C@@H](CCCNC(=N)N)C(N)=O)[C@@H](C)O)[C@@H](C)O (Palmitoyl-PLWATYTYR-NH2) |  | > 30000 nM |  |
| CCCCCCCCCCCCCCCC(=O)N[C@H](C(=O)N[C@@H](C)C(=O)N[C@@H](CC(C)C)C(=O)N1CCC[C@H]1C(=O)N[C@@H](CC(C)C)C(=O)N[C@@H](Cc1c[nH]c2ccccc12)C(=O)N[C@@H](C)C(=O)N[C@H](C(=O)N[C@@H](Cc1ccc(O)cc1)C(=O)N[C@H](C(=O)N[C@@H](Cc1ccc(O)cc1)C(=O)N[C@@H](CCCNC(=N)N)C(N)=O)[C@@H](C)O)[C@@H](C)O)C(C)C (Palmitoyl-VALPLWATYTYR-NH2) |  | 41.3 nM | 45% |
| CCCCCCCCCCCCCCCC(=O)N[C@H](C(=O)N[C@H](C(=O)N[C@@H](C)C(=O)N1CCC[C@H]1C(=O)N[C@@H](CC(C)C)C(=O)N[C@@H](Cc1c[nH]c2ccccc12)C(=O)N[C@@H](C)C(=O)N[C@H](C(=O)N[C@@H](Cc1ccc(O)cc1)C(=O)N[C@H](C(=O)N[C@@H](Cc1ccc(O)cc1)C(=O)N[C@@H](CCCNC(=N)N)C(N)=O)[C@@H](C)O)[C@@H](C)O)[C@@H](C)O)C(C)C (Palmitoyl-VTAPLWATYTYR-NH2) |  | > 30000 nM |  |
| CCCCCCCCCCCCCCCC(=O)N[C@H](C(=O)N[C@H](C(=O)N[C@@H](CC(C)C)C(=O)N[C@@H](C)C(=O)N[C@@H](CC(C)C)C(=O)N[C@@H](Cc1c[nH]c2ccccc12)C(=O)N[C@@H](C)C(=O)N[C@H](C(=O)N[C@@H](Cc1ccc(O)cc1)C(=O)N[C@H](C(=O)N[C@@H](Cc1ccc(O)cc1)C(=O)N[C@@H](CCCNC(=N)N)C(N)=O)[C@@H](C)O)[C@@H](C)O)[C@@H](C)O)C(C)C (Palmitoyl-VTLALWATYTYR-NH2) |  | > 30000 nM |  |
| CCCCCCCCCCCCCCCC(=O)N[C@H](C(=O)N[C@H](C(=O)N[C@@H](CC(C)C)C(=O)N1CCC[C@H]1C(=O)N[C@@H](C)C(=O)N[C@@H](Cc1c[nH]c2ccccc12)C(=O)N[C@@H](C)C(=O)N[C@H](C(=O)N[C@@H](Cc1ccc(O)cc1)C(=O)N[C@H](C(=O)N[C@@H](Cc1ccc(O)cc1)C(=O)N[C@@H](CCCNC(=N)N)C(N)=O)[C@@H](C)O)[C@@H](C)O)[C@@H](C)O)C(C)C (Palmitoyl-VTLPAWATYTYR-NH2) |  | > 30000 nM |  |
| CCCCCCCCCCCCCCCC(=O)N[C@H](C(=O)N[C@H](C(=O)N[C@@H](CC(C)C)C(=O)N1CCC[C@H]1C(=O)N[C@@H](CC(C)C)C(=O)N[C@@H](C)C(=O)N[C@@H](C)C(=O)N[C@H](C(=O)N[C@@H](Cc1ccc(O)cc1)C(=O)N[C@H](C(=O)N[C@@H](Cc1ccc(O)cc1)C(=O)N[C@@H](CCCNC(=N)N)C(N)=O)[C@@H](C)O)[C@@H](C)O)[C@@H](C)O)C(C)C (Palmitoyl-VTLPLAATYTYR-NH2) |  | > 30000 nM |  |
| CCCCCCCCCCCCCCCC(=O)N[C@H](C(=O)N[C@H](C(=O)N[C@@H](CC(C)C)C(=O)N1CCC[C@H]1C(=O)N[C@@H](CC(C)C)C(=O)N[C@@H](Cc1c[nH]c2ccccc12)C(=O)N[C@@H](C)C(=O)N[C@@H](C)C(=O)N[C@@H](Cc1ccc(O)cc1)C(=O)N[C@H](C(=O)N[C@@H](Cc1ccc(O)cc1)C(=O)N[C@@H](CCCNC(=N)N)C(N)=O)[C@@H](C)O)[C@@H](C)O)C(C)C (Palmitoyl-VTLPLWAAYTYR-NH2) |  | 21.5 nM | 53.6% |
| CCCCCCCCCCCCCCCC(=O)N[C@H](C(=O)N[C@H](C(=O)N[C@@H](CC(C)C)C(=O)N1CCC[C@H]1C(=O)N[C@@H](CC(C)C)C(=O)N[C@@H](Cc1c[nH]c2ccccc12)C(=O)N[C@@H](C)C(=O)N[C@H](C(N)=O)[C@@H](C)O)[C@@H](C)O)C(C)C (Palmitoyl-VTLPLWAT-NH2) |  | > 30000 nM |  |
| CCCCCCCCCCCCCCCC(=O)N[C@H](C(=O)N[C@H](C(=O)N[C@@H](CC(C)C)C(=O)N1CCC[C@H]1C(=O)N[C@@H](CC(C)C)C(=O)N[C@@H](Cc1c[nH]c2ccccc12)C(=O)N[C@@H](C)C(=O)N[C@H](C(=O)N[C@@H](C)C(=O)N[C@H](C(=O)N[C@@H](Cc1ccc(O)cc1)C(=O)N[C@@H](CCCNC(=N)N)C(N)=O)[C@@H](C)O)[C@@H](C)O)[C@@H](C)O)C(C)C (Palmitoyl-VTLPLWATATYR-NH2) |  | 95.7 nM | 84.3% |
| CCCCCCCCCCCCCCCC(=O)N[C@H](C(=O)N[C@H](C(=O)N[C@@H](CC(C)C)C(=O)N1CCC[C@H]1C(=O)N[C@@H](CC(C)C)C(=O)N[C@@H](Cc1c[nH]c2ccccc12)C(=O)N[C@@H](C)C(=O)N[C@H](C(=O)N[C@@H](Cc1ccc(O)cc1)C(=O)N[C@@H](C)C(=O)N[C@@H](Cc1ccc(O)cc1)C(=O)N[C@@H](CCCNC(=N)N)C(N)=O)[C@@H](C)O)[C@@H](C)O)C(C)C (Palmitoyl-VTLPLWATYAYR-NH2) |  | > 30000 nM |  |
| CCCCCCCCCCCCCCCC(=O)N[C@H](C(=O)N[C@H](C(=O)N[C@@H](CC(C)C)C(=O)N1CCC[C@H]1C(=O)N[C@@H](CC(C)C)C(=O)N[C@@H](Cc1c[nH]c2ccccc12)C(=O)N[C@@H](C)C(=O)N[C@H](C(=O)N[C@@H](Cc1ccc(O)cc1)C(=O)N[C@H](C(=O)N[C@@H](C)C(=O)N[C@@H](CCCNC(=N)N)C(N)=O)[C@@H](C)O)[C@@H](C)O)[C@@H](C)O)C(C)C (Palmitoyl-VTLPLWATYTAR-NH2) |  | 2.7 nM | 62.5% |

Reference: ChEMBL document CHEMBL3352267, “The design and implementation of a generic lipopeptide scanning platform to enable the identification of 'locally acting' agonists for the apelin receptor” (Bioorg Med Chem Lett, 2014)
